Where two headings read alike, the source gives them in different places.
How the values were obtained:
[1] = In vitro dissociation in blood plasma of rat; type: in vitro ADME, SD rats; conditions: fresh SD rat plasma, 37° C.; for Sampling time/Dissociation percent (%) 2 min: 2 min incubation; for Sampling time/Dissociation percent (%) 5 min: 5 min incubation; for Sampling time/Dissociation percent (%) 10 min: 10 min incubation
Procedure: The obtained water soluble taxane derivatives of the following formulae were formulated as 0.2 mg/ml aqueous solutions. […] After 2 min, 5 min and 10 min of incubation, 0.2 ml of solutions were respectively taken from each of the samples, and added to acetonitrile (0.4 ml) cooled to −20° C. for precipitation of protein.

[2] = In vitro dissociation in blood plasma of rabbit; type: in vitro ADME, New Zealand white rabbits; conditions: fresh New Zealand white rabbit plasma, 37° C.
Procedure: The obtained water soluble taxane derivatives of the following formulae were formulated as 0.2 mg/ml aqueous solutions. […]

[3] = In vivo metabolic test of the water soluble paclitaxel derivatives in rats; conditions: SD rats, 5 mg/kg intravenous, 5 min after administration, LC-MS
Procedure: After 5 min of administration, 0.3 ml of venous blood was taken from the retrobulbar venous plexus of the rats, placed in heparinized tubes, and centrifuged at 11.000 rpm for 5 min. Blood plasma was separated, and the concentrations of the compounds in the blood plasma were determined by liquid chromatography-mass spectrometry.

[4] = SD rats, 5 mg/kg intravenous, 5 min after administration, LC-MS
Procedure: After 5 min of administration, 0.3 ml of venous blood was taken from the retrobulbar venous plexus of the rats, placed in heparinized tubes, and centrifuged at 11,000 rpm for 5 min. Plasma was separated, and the concentrations of the compounds in the plasma were determined by liquid chromatography □-mass spectrometry.

[5] = tested on: human non-small cell lung cancer NCI-H446; experiment: Inhibitory activity of larotaxel and tesetaxel derivatives on subcutaneously xenografted tumor NCI-H446 in nude mice; conditions: D0 IV; for Weight change (%) D5: nude mice; for T/C (%) D20 / Tumor volume (mm^3) (D20) / Tumor inhibitory percent (%) D20 / Tumor volume (mm^3) (D0): NCI-H446 xenograft in nude mice; for Tumor inhibitory percent (%) D20: P = 0.000 vs control; for Tumor volume (mm^3) (D0): baseline at grouping (D0)
Text: Human […] NCI-H446 cells were subcutaneously inoculated into nude mice.

[6] = tested on: human prostate cancer PC-3; experiment: Inhibitory activity of docetaxel derivatives on subcutaneously xenografted tumor PC-3 in nude mice; type: in vivo; conditions: 14 mg/kg, D0 IV
Text: Purpose: to evaluate and compare the inhibitory activity of the water soluble docetaxel derivatives and docetaxel on subcutaneously xenografted tumor of human prostate cancer PC-3 in nude mice
Human prostate cancer PC-3 cells were subcutaneously inoculated into nude mice. After the tumor volume reached 100-150 mm^3, the animals were randomly divided into several groups, and administered with the water soluble docetaxel derivatives of the following formula and docetaxel, respectively once on the same day (D0). The tumor volume was measured 2-3 times per week, the animals were weighed and the data were recorded until day 20 (D20) after grouping.
The tumor volume (V) was calculated according to the equation: V=½×a×b^2, wherein a and b represent the length and the width, respectively.
T/C (%)=(T−T0)/(C−C0)×100, wherein T and C represent the tumor volume at the end of the experiment; and T0 and C0 represent the tumor volume at the beginning of the experiment.

[7] = D20, PC-3 xenograft in nude mice

Row | Structure (SMILES) | Sampling time/Dissociation percent (%) 2 min [1] [%] | Sampling time/Dissociation percent (%) 5 min [1] [%] | Sampling time/Dissociation percent (%) 10 min [1] [%] | Sampling time/Dissociation percent (%) 2 min [2] [%] | Sampling time/Dissociation percent (%) 5 min [2] [%] | Sampling time/Dissociation percent (%) 10 min [2] [%] | mean concentration of docetaxel in the blood plasma [4] [ng/mL] | also measured
1 | CC(=O)O[C@H]1C(=O)[C@@]2(C)[C@H]([C@H](OC(=O)c3ccccc3)[C@]3(O)C[C@H](OC(=O)[C@H](OC(=O)[C@H](F)CCN(C)C)[C@@H](NC(=O)c4ccccc4)c4ccccc4)C(C)=C1C3(C)C)[C@]1(OC(C)=O)CO[C@@H]1C[C@@H]2O.Cl [Compound 01, 2′-O-[4-N,N-dimethylamino-2(R)-fluorobutyryl]paclitaxel hydrochloride] | 63.5 | 96.8 | 100 | 76.5 | 98.3 | 100 |  | detection of the administered compound in the blood plasma [3]: cannot be detected
2 | CC(=O)O[C@H]1C(=O)[C@@]2(C)[C@H]([C@H](OC(=O)c3ccccc3)[C@]3(O)C[C@H](OC(=O)[C@H](OC(=O)[C@@H](F)CCN(C)C)[C@@H](NC(=O)c4ccccc4)c4ccccc4)C(C)=C1C3(C)C)[C@]1(OC(C)=O)CO[C@@H]1C[C@@H]2O.Cl [Compound 02, 2′-O-[4-N,N-dimethylamino-2(S)-fluorobutyryl]paclitaxel hydrochloride] | 59.8 | 95.6 | 100 | 68.2 | 97.5 | 100 |  | detection of the administered compound in the blood plasma [3]: cannot be detected; mean concentration of paclitaxel in the blood plasma [3]: 1637 ng/mL
3 | CC(=O)OC12COC1CC(O)C1(C)C(=O)C(O)C3=C(C)C(OC(=O)C(OC(=O)C(F)CCN(C)C)C(NC(=O)OC(C)(C)C)c4ccccc4)CC(O)(C(OC(=O)c4ccccc4)C21)C3(C)C.Cl [Compound 04, 2′-O-[4-N,N-dimethylamino-2(R)-fluorobutyryl]docetaxel hydrochloride] | 58.6 | 92.6 | 100 | 80.2 | 93.5 | 100 | 1506 | detection of the administered compound in the blood plasma [4]: cannot be detected
4 | CC(=O)O[C@@]12CO[C@@H]1C[C@H](O)[C@@]1(C)C(=O)[C@H](O)C3=C(C)[C@@H](OC(=O)[C@H](OC(=O)[C@@H](F)CCN(C)C)[C@@H](NC(=O)OC(C)(C)C)c4ccccc4)C[C@@](O)([C@@H](OC(=O)c4ccccc4)[C@H]21)C3(C)C.Cl [Compound 05, 2′-O-[4-N,N-dimethylamino-2(S)-fluorobutyryl]docetaxel hydrochloride] | 56.4 | 91.1 | 100 | 79.3 | 91.8 | 100 | 1387 | detection of the administered compound in the blood plasma [4]: cannot be detected
5 | CC(=O)O[C@@]12CO[C@@H]1C[C@H](O)[C@@]1(C)C(=O)[C@H](O)C3=C(C)[C@@H](OC(=O)[C@H](OC(=O)C(F)CCN(C)C)[C@@H](NC(=O)OC(C)(C)C)c4ccccc4)C[C@@](O)([C@@H](OC(=O)c4ccccc4)[C@H]21)C3(C)C.Cl (stereo partly drawn) [Compound 06, 2′-O-[4-N,N-dimethylamino-2(R,S)-fluorobutyryl]docetaxel hydrochloride] | 56.4 | 91.1 | 100 | 75.6 | 98.6 | 100 | 1621 | detection of the administered compound in the blood plasma [4]: cannot be detected
6 | CCN(C)CCC(F)C(=O)OC(C(=O)OC1CC2(O)C(OC(=O)c3ccccc3)C3C4(OC(C)=O)COC4CC4CC43C(=O)C(OC(C)=O)C(=C1C)C2(C)C)C(NC(=O)OC(C)(C)C)c1ccccc1.Cl [Compound C40, 2′-O-[4-N-methyl-N-ethylamino-2(R,S)-fluorobutyryl]larotaxel hydrochloride] |  |  |  |  |  |  |  | Weight change (%) D5 ([5]; 12 mg/kg): −9.1%; T/C (%) D20 ([5]; 12 mg/kg): −51%; Tumor volume (mm^3) (D20) ([5]; 12 mg/kg): 43.2 ± 12.7 mm^3; Tumor inhibitory percent (%) D20 ([5]; 12 mg/kg): 122%; Tumor volume (mm^3) (D0) ([5]; 12 mg/kg): 112.4 ± 1.8 mm^3
7 | CC(=O)O[C@@]12CO[C@@H]1CC[C@@]1(C)[C@@H]3O[C@H](CN(C)C)O[C@@H]3C3=C(C)[C@@H](OC(=O)[C@H](OC(=O)[C@H](F)CCN(C)C)[C@@H](NC(=O)OC(C)(C)C)c4ncccc4F)C[C@@](O)([C@@H](OC(=O)c4ccccc4)[C@@H]12)C3(C)C.Cl [Compound C43, 2′-O-[4-N,N-dimethylamino-2(R)-fluorobutyryl]tesetaxel hydrochloride] |  |  |  |  |  |  |  | T/C (%) D20 ([5]; 12 mg/kg): −61%; Tumor volume (mm^3) (D20) ([5]; 12 mg/kg): 31.8 ± 11.1 mm^3; Tumor inhibitory percent (%) D20 ([5]; 12 mg/kg): 153%; Tumor volume (mm^3) (D0) ([5]; 12 mg/kg): 111.5 ± 2.2 mm^3
8 | CCN(CC)CCC(F)C(=O)OC(C(=O)OC1CC2(O)C(OC(=O)c3ccccc3)C3C(C)(CCC4OCC43OC(C)=O)C3OC(CN(C)C)OC3C(=C1C)C2(C)C)C(NC(=O)OC(C)(C)C)c1ncccc1F.Cl [Compound C44, 2′-O-[4-N,N-diethylamino-2(S)-fluorobutyryl]tesetaxel hydrochloride] |  |  |  |  |  |  |  | T/C (%) D20 ([5]; 12 mg/kg): −49%; Tumor volume (mm^3) (D20) ([5]; 12 mg/kg): 41.3 ± 10.9 mm^3; Tumor inhibitory percent (%) D20 ([5]; 12 mg/kg): 123%; Tumor volume (mm^3) (D0) ([5]; 12 mg/kg): 113.6 ± 2.8 mm^3
9 | CC(=O)O[C@@]12CO[C@@H]1C[C@H](O)[C@@]1(C)C(=O)[C@H](O)C3=C(C)[C@@H](OC(=O)[C@H](O)[C@@H](NC(=O)OC(C)(C)C)c4ccccc4)C[C@@](O)([C@@H](OC(=O)c4ccccc4)[C@H]21)C3(C)C [docetaxel, reference compound] |  |  |  |  |  |  | 769 | Weight change (%) D6 ([6]; D6, nude mice): −12.3%; T/C (%) D20 [6, 7]: −27%; Tumor volume (mm^3) (D20) [6, 7]: 81.4 ± 25.1 mm^3; Tumor inhibitory percent (%) D20 ([6]; D20, PC-3 xenograft in nude mice, P = 0.000 vs control): 127%; Tumor volume (mm^3) (D0) ([6]; baseline at grouping (D0), PC-3 xenograft in nude mice): 111.5 ± 1.3 mm^3
10 | CC(=O)O[C@H]1C(=O)[C@]23C[C@H]2C[C@H]2OC[C@@]2(OC(C)=O)[C@H]3[C@H](OC(=O)c2ccccc2)[C@]2(O)C[C@H](OC(=O)[C@H](O)[C@@H](NC(=O)OC(C)(C)C)c3ccccc3)C(C)=C1C2(C)C [larotaxel, reference compound] |  |  |  |  |  |  |  | Weight change (%) D5 ([5]; 7 mg/kg): −8.4%; T/C (%) D20 ([5]; 7 mg/kg): −64%; Tumor volume (mm^3) (D20) ([5]; 7 mg/kg): 33.3 ± 12.4 mm^3; Tumor inhibitory percent (%) D20 ([5]; 7 mg/kg): 153%; Tumor volume (mm^3) (D0) ([5]; 7 mg/kg): 110.9 ± 2.4 mm^3
11 | CC(=O)O[C@@]12CO[C@@H]1CC[C@@]1(C)[C@@H]3O[C@H](CN(C)C)O[C@@H]3C3=C(C)[C@@H](OC(=O)[C@H](O)[C@@H](NC(=O)OC(C)(C)C)c4ncccc4F)C[C@@](O)([C@@H](OC(=O)c4ccccc4)[C@@H]12)C3(C)C [tesetaxel, reference compound] |  |  |  |  |  |  |  | T/C (%) D20 ([5]; 8 mg/kg): −58%; Tumor volume (mm^3) (D20) ([5]; 8 mg/kg): 33.7 ± 12.1 mm^3; Tumor inhibitory percent (%) D20 ([5]; 8 mg/kg): 146%; Tumor volume (mm^3) (D0) ([5]; 8 mg/kg): 112.8 ± 2.2 mm^3
